# Data reported in PubChem BioAssay (NCI).
#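 The concentration for 50% growth inhibition is given as GI50. The concentration for full growth arrest is given as TGI.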
# Experiments:
# Assay in all cases: DTP human tumour cell line panel, 384-well format
# TK-10 renal = system: TK-10 renal
# T-47D breast = system: T-47D breast
# M14 melanoma = system: M14 melanoma
# HL-60(TB) leukemia = system: HL-60(TB) leukemia
# SK-MEL-2 melanoma = system: SK-MEL-2 melanoma
# DU-145 prostate = system: DU-145 prostate
# A498 renal = system: A498 renal
# MDA-MB-231 breast = system: MDA-MB-231 breast
# SK-MEL-28 melanoma = system: SK-MEL-28 melanoma
# SF-539 CNS = system: SF-539 CNS
# K-562 leukemia = system: K-562 leukemia
# OVCAR-8 ovarian = system: OVCAR-8 ovarian
# NCI-H522 lung = system: NCI-H522 lung
# EKVX NSCLC = system: EKVX NSCLC
# HT29 colon = system: HT29 colon
# ACHN renal = system: ACHN renal
# SN12C renal = system: SN12C renal
# MCF7 breast = system: MCF7 breast
# A549 NSCLC = system: A549 NSCLC
# LOX IMVI melanoma = system: LOX IMVI melanoma
# HCT-15 colon = system: HCT-15 colon
# HOP-62 NSCLC = system: HOP-62 NSCLC
# CAKI-1 renal = system: CAKI-1 renal
# HOP-92 NSCLC = system: HOP-92 NSCLC
# HCC-2998 colon = system: HCC-2998 colon
# SF-268 CNS = system: SF-268 CNS
# NCI-H322M lung = system: NCI-H322M lung
# RXF 393 renal = system: RXF 393 renal
# UACC-62 melanoma = system: UACC-62 melanoma
# OVCAR-3 ovarian = system: OVCAR-3 ovarian
# HCT-116 colon = system: HCT-116 colon
# CCRF-CEM leukemia = system: CCRF-CEM leukemia
# PC-3 prostate = system: PC-3 prostate
# KM12 colon = system: KM12 colon
# OVCAR-4 ovarian = system: OVCAR-4 ovarian
# RPMI-8226 leukemia = system: RPMI-8226 leukemia
# SK-MEL-5 melanoma = system: SK-MEL-5 melanoma
# UACC-257 melanoma = system: UACC-257 melanoma
# SW-620 colon = system: SW-620 colon
# HS 578T breast = system: HS 578T breast
# NCI-H226 lung = system: NCI-H226 lung
# SNB-19 CNS = system: SNB-19 CNS
# UO-31 renal = system: UO-31 renal
# 786-0 renal = system: 786-0 renal
# U251 glioblastoma = system: U251 glioblastoma
# SNB-75 CNS = system: SNB-75 CNS
# NCI-H460 NSCLC = system: NCI-H460 NSCLC
# MDA-MB-435 melanoma = system: MDA-MB-435 melanoma
# IGROV1 ovarian = system: IGROV1 ovarian
# SF-295 CNS = system: SF-295 CNS
# NCI/ADR-RES ovarian = system: NCI/ADR-RES ovarian
# COLO 205 colon = system: COLO 205 colon
# MOLT-4 leukemia = system: MOLT-4 leukemia
# MDA-MB-468 breast = system: MDA-MB-468 breast
# NCI-H23 lung = system: NCI-H23 lung
# BT-549 breast = system: BT-549 breast
# OVCAR-5 ovarian = system: OVCAR-5 ovarian
smiles,measurement,setting,value
Nc1cc(C(F)F)c(-c2nc(N3[C@@H]4CC[C@H]3COC4)nc(N3[C@@H]4CC[C@H]3COC4)n2)cn1,GI50,TK-10 renal,384 nM
same,TGI,TK-10 renal,8.8 µM
same,GI50,T-47D breast,104 nM
same,TGI,T-47D breast,509 nM
same,GI50,M14 melanoma,358 nM
same,TGI,M14 melanoma,> 100 µM
same,GI50,HL-60(TB) leukemia,2530 nM
same,TGI,HL-60(TB) leukemia,> 100 µM
same,GI50,SK-MEL-2 melanoma,2120 nM
same,TGI,SK-MEL-2 melanoma,9.78 µM
same,GI50,DU-145 prostate,525 nM
same,TGI,DU-145 prostate,> 100 µM
same,GI50,A498 renal,89.9 nM
same,TGI,A498 renal,3.63 µM
same,GI50,MDA-MB-231 breast,338 nM
same,TGI,MDA-MB-231 breast,> 100 µM
same,GI50,SK-MEL-28 melanoma,446 nM
same,TGI,SK-MEL-28 melanoma,> 100 µM
same,GI50,SF-539 CNS,451 nM
same,TGI,SF-539 CNS,> 100 µM
same,GI50,K-562 leukemia,523 nM
same,TGI,K-562 leukemia,> 100 µM
same,GI50,OVCAR-8 ovarian,545 nM
same,TGI,OVCAR-8 ovarian,> 100 µM
same,GI50,NCI-H522 lung,183 nM
same,TGI,NCI-H522 lung,7.62 µM
same,GI50,EKVX NSCLC,345 nM
same,TGI,EKVX NSCLC,12 µM
same,GI50,HT29 colon,4.21 µM
same,TGI,HT29 colon,> 100 µM
same,GI50,ACHN renal,426 nM
same,TGI,ACHN renal,> 100 µM
same,GI50,SN12C renal,347 nM
same,TGI,SN12C renal,> 100 µM
same,GI50,MCF7 breast,143 nM
same,TGI,MCF7 breast,> 100 µM
same,GI50,A549 NSCLC,338 nM
same,TGI,A549 NSCLC,> 100 µM
same,GI50,LOX IMVI melanoma,464 nM
same,TGI,LOX IMVI melanoma,> 100 µM
same,GI50,HCT-15 colon,419 nM
same,TGI,HCT-15 colon,> 100 µM
same,GI50,HOP-62 NSCLC,497 nM
same,TGI,HOP-62 NSCLC,7.53 µM
same,GI50,CAKI-1 renal,311 nM
same,TGI,CAKI-1 renal,3.67 µM
same,GI50,HOP-92 NSCLC,560 nM
same,TGI,HOP-92 NSCLC,> 100 µM
same,GI50,HCC-2998 colon,407 nM
same,TGI,HCC-2998 colon,> 100 µM
same,GI50,SF-268 CNS,1120 nM
same,TGI,SF-268 CNS,> 100 µM
same,GI50,NCI-H322M lung,398 nM
same,TGI,NCI-H322M lung,> 100 µM
same,GI50,RXF 393 renal,198 nM
same,TGI,RXF 393 renal,1580 nM
same,GI50,UACC-62 melanoma,389 nM
same,TGI,UACC-62 melanoma,5.93 µM
same,GI50,OVCAR-3 ovarian,349 nM
same,TGI,OVCAR-3 ovarian,> 100 µM
same,GI50,HCT-116 colon,1440 nM
same,TGI,HCT-116 colon,> 100 µM
same,GI50,CCRF-CEM leukemia,301 nM
same,TGI,CCRF-CEM leukemia,38 µM
same,GI50,PC-3 prostate,253 nM
same,TGI,PC-3 prostate,> 100 µM
same,GI50,KM12 colon,320 nM
same,TGI,KM12 colon,> 100 µM
same,GI50,OVCAR-4 ovarian,178 nM
same,TGI,OVCAR-4 ovarian,2210 nM
same,GI50,RPMI-8226 leukemia,28.7 nM
same,TGI,RPMI-8226 leukemia,198 nM
same,GI50,SK-MEL-5 melanoma,251 nM
same,TGI,SK-MEL-5 melanoma,1530 nM
same,GI50,UACC-257 melanoma,1500 nM
same,TGI,UACC-257 melanoma,> 100 µM
same,GI50,SW-620 colon,1510 nM
same,TGI,SW-620 colon,> 100 µM
same,GI50,HS 578T breast,138 nM
same,TGI,HS 578T breast,687 nM
same,GI50,NCI-H226 lung,196 nM
same,TGI,NCI-H226 lung,2840 nM
same,GI50,SNB-19 CNS,3.03 µM
same,TGI,SNB-19 CNS,> 100 µM
same,GI50,UO-31 renal,216 nM
same,TGI,UO-31 renal,796 nM
same,GI50,786-0 renal,639 nM
same,TGI,786-0 renal,> 100 µM
same,GI50,U251 glioblastoma,769 nM
same,TGI,U251 glioblastoma,> 100 µM
same,GI50,SNB-75 CNS,170 nM
same,TGI,SNB-75 CNS,873 nM
same,GI50,NCI-H460 NSCLC,105 nM
same,TGI,NCI-H460 NSCLC,> 100 µM
same,GI50,MDA-MB-435 melanoma,499 nM
same,TGI,MDA-MB-435 melanoma,32.2 µM
same,GI50,IGROV1 ovarian,188 nM
same,TGI,IGROV1 ovarian,980 nM
same,GI50,SF-295 CNS,215 nM
same,TGI,SF-295 CNS,1930 nM
same,GI50,NCI/ADR-RES ovarian,921 nM
same,TGI,NCI/ADR-RES ovarian,> 100 µM
same,GI50,COLO 205 colon,368 nM
same,TGI,COLO 205 colon,> 100 µM
same,GI50,MOLT-4 leukemia,158 nM
same,TGI,MOLT-4 leukemia,9.69 µM
same,GI50,MDA-MB-468 breast,201 nM
same,TGI,MDA-MB-468 breast,980 nM
same,GI50,NCI-H23 lung,2180 nM
same,TGI,NCI-H23 lung,> 100 µM
same,GI50,BT-549 breast,261 nM
same,TGI,BT-549 breast,2640 nM
same,GI50,OVCAR-5 ovarian,718 nM
same,TGI,OVCAR-5 ovarian,> 100 µM
